Assay results as given in patent US9359383B2, “β-ketoimine ligand, method of preparing the same, metal complex comprising the same and method of forming thin film using the same” (SAMSUNG ELECTRONICS CO., LTD., priority 2011, dated 2016).

Columns and labels:
[1] = Purification by distillation under reduced pressure (thermal stability); type: physicochemical; settings: distillation at 30-50 Pa and 200-220° C.
Experimental: Strontium complex compounds of Comparative Examples 1 to 8 were prepared using the β-ketoimine ligands, obtained in Synthesis Examples 4 to 11, in the same manner as Example 1. Purification of the strontium complex compounds of Comparative Examples 3, 4, 5, 6 and 8, which could be distilled, was carried out at a pressure of 30-50 Pa and a temperature of 200˜220° C. […] The strontium complex compounds of Comparative Examples 1 to 8 were analyzed in the same manner as Examples 1 to 3, thereby determining the chemical structures thereof.

[2] = Evaluation of solubility in organic solvent (Test Example 2); type: physicochemical; settings: 0.1-0.7 mol added to 1000 ml solvent, sealed, stood 24 hours, visual observation
Experimental: For the strontium complex compounds of Examples 1 to 3 and Comparative Examples 2 to 8, the solubilities of the complex compounds in ethyl cyclohexane, diethyl glycol dimethyl ether and toluene were evaluated. The evaluation was performed by adding 0.1-0.7 mol of each of the strontium complex compounds to 1000 ml of each of the organic solvents, sealing the mixtures, allowing the mixtures to stand for 24 hours, and visually observing whether a solid occurred in the mixtures. […] In Table 3, the case in which the complex compound was dissolved at a concentration of less than 0.1 mol was indicated as “x”.

[3] = Thermal stability by DSC (Test Example 3); type: physicochemical; settings: closed metal container, dry argon, heating rate 10° C./min, sample 1-4 mg
Experimental: (§1) The strontium complex compounds of Examples 1 to 3 and Comparative Examples 5 to 8 were measured for thermal stability by TGA and DSC. The TGA measurement was carried out under the following conditions: dry argon flow rate: 100 ml/min; heating rate: 10° C./min; and a sample amount of 7-12 mg. The DSC measurement was carried out by injecting a sample into a closed metal container in a glove box in a dry argon atmosphere and heating the sample container at a rate of 10° C./min, in which the amount of the sample was 1-4 mg. In the TGA measurement, sampling and measurement were carried out in the glove box in the dry argon atmosphere.

[4] = Thermal stability by TGA (Test Example 3); type: physicochemical; settings: dry argon 100 ml/min, heating rate 10° C./min, sample 7-12 mg
Experimental: as §1

| thermal stability (could not be purified by distillation) [1] | concentration of the strontium complex compound in the transparent liquid in which no solid was present, Diethylene glycol dimethyl ether [2] | concentration of the strontium complex compound in the transparent liquid in which no solid was present, Toluene [2] [mol] | Decomposition peak top temperature (° C.) [3] [°C] | Remaining amount (wt % at 400 ° C.) [4] [wt %] | SMILES | concentration of the strontium complex compound in the transparent liquid in which no solid was present, Ethyl cyclohexane [2] | melting point [°C] |
| --- | --- | --- | --- | --- | --- | --- | --- |
| low thermal stability | – | – | – | – | COCC[N+]1=C(C)C=C(C(C)(C)C)[O][Sr-2]12[O]C(C(C)(C)C)=CC(C)=[N+]2CCOC [Comparative Example 1] | – | – |
| low thermal stability | 0.3 mol | 0.3 | – | – | CC1=[N+](CCN(C)C)[Sr-2]2([O]C(C(C)(C)C)=C1)[O]C(C(C)(C)C)=CC(C)=[N+]2CCN(C)C [Comparative Example 2] | X (the case in which the complex compound was dissolved at a concentration of less than 0.1 mol was indicated as “x”) | – |
| – | 0.4 mol | 0.7 | – | – | CC(C)C1=[N+](C(C)CN(C)C)[Sr-2]2([O]C(C(C)(C)C)=C1)[O]C(C(C)(C)C)=CC(C(C)C)=[N+]2C(C)CN(C)C (stereo not drawn) [Comparative Example 4] | 0.3 mol | – |
| – | 0.4 mol | 0.1 | 336.8 | 26.2 | COCCCC1=[N+](CCCN(C)C)[Sr-2]2([O]C(C(C)(C)C)=C1)[O]C(C(C)(C)C)=CC(CCCOC)=[N+]2CCCN(C)C [Comparative Example 5] | X (the case in which the complex compound was dissolved at a concentration of less than 0.1 mol was indicated as “x”) | – |
| – | 0.4 mol | 0.4 | 363.0 | 3.7 | COCC(C)[N+]1=C(C(C)C)C=C(C(C)(C)COC)[O][Sr-2]12[O]C(C(C)(C)COC)=CC(C(C)C)=[N+]2C(C)COC (stereo not drawn) [Comparative Example 6] | 0.5 mol | – |
| low thermal stability | 0.2 mol | 0.3 | 337.5 | 10.2 | COCC(C)(C)C1=CC(C(C)C)=[N+](CCN(C)C)[Sr-2]2([O]1)[O]C(C(C)(C)COC)=CC(C(C)C)=[N+]2CCN(C)C [Comparative Example 7] | 0.3 mol | – |
| – | 0.7 mol | 0.7 | 393.2 | 0.87 | CCC(C)C(=CC(=O)C(C)(C)COC)[N]([Sr][N](C(=CC(=O)C(C)(C)COC)C(C)CC)C(C)CN(C)C)C(C)CN(C)C (stereo not drawn) [Example 3] | 0.7 mol | – |

| SMILES | thermal stability (could not be purified by distillation) [1] | concentration of the strontium complex compound in the transparent liquid in which no solid was present, Diethylene glycol dimethyl ether [2] | concentration of the strontium complex compound in the transparent liquid in which no solid was present, Toluene [2] [mol] | Decomposition peak top temperature (° C.) [3] [°C] | Remaining amount (wt % at 400 ° C.) [4] [wt %] | concentration of the strontium complex compound in the transparent liquid in which no solid was present, Ethyl cyclohexane [2] | melting point [°C] |
| --- | --- | --- | --- | --- | --- | --- | --- |
| COCCC(C)(C)C1=CC(C(C)C)=[N+](C(C)CN(C)C)[Sr-2]2([O]1)[O]C(C(C)(C)CCOC)=CC(C(C)C)=[N+]2C(C)CN(C)C (stereo not drawn) [Comparative Example 8] | – | X (the case in which the complex compound was dissolved at a concentration of less than 0.1 mol was indicated as “x”) | 0.1 | 368.2 | 3.97 | X (the case in which the complex compound was dissolved at a concentration of less than 0.1 mol was indicated as “x”) | – |
| COCC(C)(C)C1=[O+][Sr-4]234([O+]=C(C(C)(C)COC)C=C(C(C)C)[N]2C(C)C[N+]3(C)C)[N](C(C(C)C)=C1)C(C)C[N+]4(C)C (stereo not drawn) [Example 1] | – | 0.7 mol | 0.7 | 382.4 | 0.61 | 0.7 mol | 140 to 141 |
| CCOCC(C)(C)C(=O)C=C(C(C)C)[N]([Sr][N](C(=CC(=O)C(C)(C)COCC)C(C)C)C(C)CN(C)C)C(C)CN(C)C (stereo not drawn) [Example 2] | – | 0.7 mol | 0.7 | 360.7 | 1.40 | 0.6 mol | – |
